Among the data in PubChem BioAssay (NCI) are TGI and GI50 values, retold here.

Among the test systems are KM12 colon; NCI-H460 lung; SNB-19 CNS; SF-268 CNS; SNB-75 CNS; MCF7 breast.
Holding throughout (assay): growth of human tumour cells (NCI), 48 h

Where “and” joins values, the source holds several entries; their conditions need not be identical. Identical values can stand only once.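 Cultured in 96-well plates, cells were exposed to test compound for 48 hours across five concentrations. At the GI50, growth is halved. Definition used: TGI = concentration required for complete inhibition of growth.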 Where only a bound is given, the exact number is not on record here.

Regarding `O=c1cccccc1[O-].O=c1cccccc1[O-].O=c1cccccc1[O-].[La+3]`, the TGI is over 100 µM with KM12 colon, over 100 µM in the test on NCI-H460 lung and 84.1 µM in the test on SNB-19 CNS.
Turning to `CN1C(=O)C2C(C1=O)C1(O)c3ccccc3C2(N)c2ccccc21` (stereo not given), the TGI in the test on KM12 colon, in the test with NCI-H460 lung, with SF-268 CNS, with SNB-19 CNS and in the test on SNB-75 CNS was over 100 µM each time.
For the molecule `Cn1cc(-c2ccc(-c3ccc(C4=NC5(CC5)C(=O)N4C[C@@H]4CCN(C(=O)C5CC5)C4)cc3)cc2)cn1`, the GI50 is 5.39 µM in the test on KM12 colon; 1.12 µM with MCF7 breast; 1.22 µM in the test on NCI-H460 lung; 11.9 µM with SF-268 CNS; 21.8 µM in the test with SNB-19 CNS; 20 µM in the test on SNB-75 CNS. For the same molecule, the TGI in the test with KM12 colon is 32.1 µM; with MCF7 breast, over 100 µM; in the test on NCI-H460 lung, 18 µM; in the test with SF-268 CNS, over 100 µM; in the test with SNB-19 CNS, over 100 µM; in the test with SNB-75 CNS, over 100 µM.
As to `O=c1c(-c2ccccc2)coc2cc(OC/C(=N/O)c3ccccc3)ccc12`, the GI50 with KM12 colon was 20.2 µM; in the test with MCF7 breast, 23.3 µM; in the test on NCI-H460 lung it was 11 µM; with SF-268 CNS it was 13.5 µM; with SNB-19 CNS, 23.2 µM; in the test with SNB-75 CNS, 22.9 µM. Moreover, the TGI in the test with KM12 colon worked out at 48.3 µM; in the test on MCF7 breast it was 47.1 µM; with NCI-H460 lung, 26.9 µM; with SF-268 CNS, 28.7 µM; in the test on SNB-19 CNS it was 86.9 µM; in the test with SNB-75 CNS, 79.2 µM.
On to `CC12CCC(Br)C(C)(C)C1CC=C1C(=O)OCC1O2` (stereo not given), for which the TGI in the test on KM12 colon is 32.3 µM; with MCF7 breast, 22.7 µM; in the test with NCI-H460 lung it was 36.2 µM; in the test on SF-268 CNS, 31.9 µM; in the test on SNB-19 CNS, over 50.4 µM; with SNB-75 CNS, 34.7 µM.
Turning to `C[N+]1=C(/C=C\C=C\c2ccccc2)C(C)(C)c2ccccc21`, the GI50 was 3.15 µM with KM12 colon; 2.48 µM in the test on MCF7 breast; 4.44 µM in the test on NCI-H460 lung; 3.33 µM with SF-268 CNS; 2.79 µM with SNB-19 CNS; 3.73 µM in the test on SNB-75 CNS. Also, the TGI in the test on KM12 colon was 10.8 µM; in the test on MCF7 breast, 11 µM; in the test with NCI-H460 lung, 17.2 µM; in the test with SF-268 CNS it was 12.1 µM; in the test with SNB-19 CNS, 10.8 µM; in the test on SNB-75 CNS, 16.2 µM.
Regarding `COc1ccc2c(c1)C(=O)c1c-2n(CCCI)c(=O)c2cc([N+](=O)[O-])ccc12`, the GI50 with KM12 colon is 0.939 µM and 1.77 µM; with MCF7 breast it was 0.0105 µM and 0.0343 µM; with NCI-H460 lung, 0.0117 µM and 0.0296 µM; in the test with SF-268 CNS it was 0.161 µM and 0.141 µM; in the test on SNB-19 CNS it was 0.313 µM and 0.131 µM; with SNB-75 CNS, 0.198 µM and 0.368 µM. The TGI in the test with KM12 colon is 50 µM and 46.6 µM; with SF-268 CNS, 44.4 µM and > 100 µM; with SNB-19 CNS it was 36.9 µM and > 100 µM; in the test on SNB-75 CNS, 2.37 µM and 15.2 µM.
For the molecule `CCN1CCN(CC(=O)N2c3cccc4cccc(c34)N(C(=O)CN3CCN(CC)CC3)C2c2cn(-c3ccccc3)nc2-c2cccc([N+](=O)[O-])c2)CC1`, the GI50 with KM12 colon is 1.72 µM; in the test on MCF7 breast, 1.62 µM; with NCI-H460 lung it was 1.51 µM; in the test on SF-268 CNS, 1.67 µM; in the test on SNB-19 CNS, 1.66 µM; with SNB-75 CNS, 1.13 µM. For the same molecule, the TGI in the test on KM12 colon is 3.28 µM; in the test with MCF7 breast, 3.24 µM; with NCI-H460 lung, 3.14 µM; in the test on SF-268 CNS, 3.47 µM; in the test with SNB-19 CNS, 3.42 µM; in the test on SNB-75 CNS, 2.48 µM.
Turning to `COc1cc(-c2nc(SCCC(C)C)nc(Nc3ccc(S(N)(=O)=O)cc3)c2C#N)cc(OC)c1OC`, the GI50 with KM12 colon is 2.2 µM; in the test with MCF7 breast it was 3.19 µM; with NCI-H460 lung, 2.8 µM; in the test with SF-268 CNS, 3.67 µM; in the test on SNB-19 CNS, 5.38 µM; in the test with SNB-75 CNS it was 2.15 µM. Besides, the TGI was 5.56 µM in the test on KM12 colon; over 100 µM in the test on MCF7 breast; 8.45 µM with NCI-H460 lung; over 100 µM in the test on SF-268 CNS; over 100 µM in the test on SNB-19 CNS; 54.2 µM in the test on SNB-75 CNS.
Regarding `Cc1cc(N2CCOCC2)cc2[nH]c(-c3c(NC[C@@H](O)c4cccc(Cl)c4)cc[nH]c3=O)nc12`, the GI50 is 0.0161 µM in the test on KM12 colon; 0.233 µM in the test with MCF7 breast; 0.51 µM with NCI-H460 lung; 2.06 µM in the test on SF-268 CNS; 3.29 µM in the test on SNB-19 CNS; 1.15 µM in the test on SNB-75 CNS. In addition, the TGI in the test on KM12 colon stood at 4.46 µM; in the test on MCF7 breast, 15.8 µM; in the test with NCI-H460 lung, 11.2 µM; with SF-268 CNS, 7.63 µM; in the test with SNB-19 CNS, 22.8 µM; in the test on SNB-75 CNS, 2.47 µM.
Regarding `Cc1ncc(C(=O)Nc2ccc(CN3CCN(C)CC3)c(C(F)(F)F)c2)cc1C#Cc1cnc(N)cc1C#N`, the GI50 is 0.00758 µM in the test on KM12 colon; 1.69 µM with MCF7 breast; 0.417 µM in the test with NCI-H460 lung; 0.605 µM in the test on SF-268 CNS; 2.37 µM in the test with SNB-19 CNS; 1.21 µM in the test with SNB-75 CNS. In addition, the TGI in the test with KM12 colon came to 1.98 µM; with MCF7 breast it was 4.48 µM; in the test with NCI-H460 lung it was 2.84 µM; with SF-268 CNS it was 3.33 µM; in the test on SNB-19 CNS, 4.67 µM; in the test with SNB-75 CNS, 3.44 µM.
As for `O=C(OC[C@H]1O[C@H](OC(=O)c2cc(O)c(O)c(OC(=O)c3cc(O)c(O)c(O)c3)c2)[C@H](OC(=O)c2cc(O)c(O)c(OC(=O)c3cc(O)c(O)c(O)c3)c2)[C@@H](OC(=O)c2cc(O)c(O)c(OC(=O)c3cc(O)c(O)c(O)c3)c2)[C@@H]1OC(=O)c1cc(O)c(O)c(OC(=O)c2cc(O)c(O)c(O)c2)c1)c1cc(O)c(O)c(OC(=O)c2cc(O)c(O)c(O)c2)c1`, the GI50 in the test on KM12 colon was 1.67 µM; in the test with MCF7 breast it was 5.21 µM; in the test on NCI-H460 lung it was 1.09 µM; with SF-268 CNS, 2.18 µM; in the test on SNB-19 CNS, 2.57 µM; with SNB-75 CNS it was 2.37 µM. For the same molecule, the TGI is over 25 µM in the test with KM12 colon; 11.1 µM in the test with MCF7 breast; over 25 µM in the test on NCI-H460 lung; over 25 µM with SF-268 CNS; over 25 µM with SNB-19 CNS; over 25 µM in the test with SNB-75 CNS.
